Converted amounts (≈) assume the structure as drawn. Where two headings read alike, the source gives them in different places.
Legend:
[1] = system: Cephalothin(CET)sensitive E. coli (2 strains), K. pneumoniae (1) an P. mirabilis (2); experiment: In vitro MIC, two-fold serial agar dilution in Mueller-Hinton agar, GnIa strains; type: cell-based; conditions: 5 strains, read-out: Geometric mean of MIC, GnIa
Procedure: (§1) The in vitro antibacterial activity of the parent cephalosporanic acids of Formula I wherein R^4 is hydrogen is shown in Table 1 in terms of geometric mean of the Minimum Inhibitory Concentrations (MIC's) which were determined by the two-fold serial agar dilution method in Mueller-Hinton agar against 25 strains of test organisms in five groups.
GnIa: Cephalothin(CET)sensitive E. coli (2 strains), K. pneumoniae (1) an […]

[2] = system: M. morcanii (1), E. cloacae (2) and S. marcescens (2); experiment: In vitro MIC, two-fold serial agar dilution in Mueller-Hinton agar, GnII strains; type: cell-based; conditions: Enterobacter cloacae, read-out: Geometric mean of MIC, GnII
Procedure: as §1
GnII: M. morcanii (1), E. cloacae (2) and S. marcescens (2)

[3] = system: CETresistant E. coli (3) and K. pneumoniae (2); experiment: In vitro MIC, two-fold serial agar dilution in Mueller-Hinton agar, GnIb strains; type: cell-based; conditions: Escherichia coli, 5 strains, read-out: Geometric mean of MIC, GnIb
Procedure: as §1
GnIb: CETresistant E. coli (3) and K. pneumoniae (2)

PCresistant S. aureus = experiment: In vitro MIC, two-fold serial agar dilution in Mueller-Hinton agar, GpIb strains; type: cell-based; conditions: Staphylococcus aureus, 5 strains, read-out: Geometric mean of MIC, GpIb
Procedure: as §1
GpIb: PCresistant S. aureus

[4] = system: Penicillin(PC)sensitive S. aureus; experiment: In vitro MIC, two-fold serial agar dilution in Mueller-Hinton agar, Gp-Ia strains; type: cell-based; conditions: Staphylococcus aureus; GpIa, 5 strains; read-out: Geometric mean of MIC, GpIa
Procedure: as §1
Gp-Ia: Penicillin(PC)sensitive S. aureus

[5] = Mouse blood levels after oral administration (Table 2); type: in vivo
E. coli Juhl = experiment: Evaluation in vivo (mouse), oral PD50 against E. coli Juhl; conditions: Escherichia coli
Text: (§2) Tables 4 and 5 show the in vivo activity of pro-drug esters 88-92 including the bioavailability thereof as reflected by blood levels.

[6] = Bioavailability in mouse as reflected by blood levels (Table 5); type: in vivo; conditions: oral, Table 5 (definition given as drawing 18)
Text: as §2

S. aureus Smith = experiment: Evaluation in vivo (mouse), oral PD50 against S. aureus Smith; conditions: Staphylococcus aureus
Text: as §2

[7] = Evaluation in vivo (mouse), blood concentration (Table 4); conditions: po, treated orally, single 100 mg/kg dose
Procedure: as §2
*treated orally, single 100 mg/kg. dose

[8] = mouse blood, 20 mg/kg, read-out: AUC
[9] = mouse blood, 20 mg/kg, read-out: T 1/2 (converted)
[10] = mouse blood, 100 mg/kg, read-out: AUC
[11] = mouse blood, 100 mg/kg, read-out: Cmax
[12] = mouse blood, 100 mg/kg, read-out: T 1/2 (converted)

Structure (SMILES)	MIC [1]	MIC [2]	MIC [3]	MIC (PCresistant S. aureus)	MIC [4]	ED50 (E. coli Juhl; Table 5)	bioavailability [6]	ED50 (S. aureus Smith; Table 5)	also measured
N[C@@H](C(=O)N[C@@H]1C(=O)N2C(C(=O)O)=C(Cl)CS[C@H]12)c1ccccc1 [Cefaclor, reference compound]	0.92 mg/L (≈ 2.5 µM)	> 100 mg/L	11 mg/L (≈ 29.9 µM)	4.7 mg/L (≈ 12.8 µM)	0.7 mg/L (≈ 1.9 µM)	–	–	–	AUC ([5]; mouse, in vivo, 20 mg/kg): 8.9 µg·h/mL; half-life ([5]; mouse, in vivo, 20 mg/kg): 0.91 h; AUC ([5]; mouse, in vivo, 100 mg/kg): 35 µg·h/mL; half-life ([5]; mouse, in vivo, 100 mg/kg): 1.2 h
CC1=C(C(=O)O)N2C(=O)[C@@H](NC(=O)[C@H](N)c3ccc(O)cc3)[C@H]2SC1 [Cefadroxil, reference compound]	8.3 mg/L (≈ 22.8 µM)	> 100 mg/L	17 mg/L (≈ 46.8 µM)	3.6 mg/L (≈ 9.91 µM)	1.4 mg/L (≈ 3.85 µM)	–	–	–	AUC [5, 8]: 16 µg·h/mL; half-life [5, 9]: 1.4 h; AUC [5, 10]: 69 µg·h/mL; Cmax [5, 11]: 57 µg/mL; half-life [5, 12]: 1.6 h
C=CC1=C(C(=O)O)N2C(=O)[C@@H](NC(=O)/C(=N\OCC(=O)O)c3csc(N)n3)[C@H]2SC1 [Cefixime, cefixime]	0.016 mg/L (≈ 0.0353 µM)	3.2 mg/L (≈ 7.06 µM)	3.1 mg/L (≈ 6.84 µM)	12.5 mg/L (≈ 27.6 µM)	4.7 mg/L (≈ 10.4 µM)	–	–	–	AUC [5, 8]: 25 µg·h/mL; Cmax ([5]; mouse blood, 20 mg/kg, read-out: Cmax): 10 µg/mL; half-life [5, 9]: 1.5 h; AUC [5, 10]: 75 µg·h/mL; Cmax [5, 11]: 28 µg/mL; half-life [5, 12]: 1.6 h
C/C=C\C1=C(C(=O)OC(C)OC(C)=O)N2C(=O)[C@@H](NC(=O)/C(=N\O)c3csc(N)n3)[C@H]2SC1 (stereo partly drawn) [Compound 30, 1-acetoxyethyl 7β-[(Z)-2-(2-aminothiazol-4-yl)-2-(hydroxyimino)acetamido]-3-[(Z)-prop-1-en-1-yl]-3-cephem-4-carboxylate]	–	–	–	–	–	1.1 mg/kg	76%	2 mg/kg	AUC ([5]; mouse, in vivo, 20 mg/kg): 16 µg·h/mL; Cmax ([5]; mouse, in vivo, 20 mg/kg): 9.9 µg/mL; half-life ([5]; mouse, in vivo, 20 mg/kg): 1 h; AUC ([5]; mouse, in vivo, 100 mg/kg): 61 µg·h/mL; Cmax ([5]; mouse, in vivo, 100 mg/kg): 36 µg/mL; half-life ([5]; mouse, in vivo, 100 mg/kg): 1.3 h
C/C=C/C1=C(C(=O)O)N2C(=O)[C@@H](NC(=O)/C(=N\O)c3csc(N)n3)[C@H]2SC1 [Compound 33, 7β-[(Z)-2-(2-aminothiazol-4-yl)-2-(hydroxyimino)acetamido]-3-[(E)-prop-1-en-1-yl]-3-cephem-4-carboxylic acid]	0.46 mg/L (≈ 1.12 µM)	22 mg/L (≈ 53.7 µM)	1.4 mg/L (≈ 3.42 µM)	0.61 mg/L (≈ 1.49 µM)	0.23 mg/L (≈ 0.562 µM)	–	–	–	–
CC(=O)OC/C=C\C1=C(C(=O)O)N2C(=O)[C@@H](NC(=O)/C(=N\O)c3csc(N)n3)[C@H]2SC1 [Compound 37, 7β-[(Z)-2-(2-aminothiazol-4-yl)-2-(hydroxyimino)acetamido]-3-[(Z)-3-acetoxyprop-1-en-1-yl]-3-cephem-4-carboxylic acid]	0.025 mg/L (≈ 0.0535 µM)	1.1 mg/L (≈ 2.35 µM)	0.1 mg/L (≈ 0.214 µM)	0.4 mg/L (≈ 0.856 µM)	0.17 mg/L (≈ 0.364 µM)	–	–	–	–
C/C=C\C1=C(C(=O)O)N2C(=O)[C@@H](NC(=O)/C(=N\OC(C)=O)c3csc(N)n3)[C@H]2SC1 [Compound 53, 7β-[(Z)-2-(2-aminothiazol-4-yl)-2-(acetoxyimino)acetamido]-3-[(Z)-prop-1-en-1-yl]-3-cephem-4-carboxylic acid]	0.057 mg/L (≈ 0.126 µM)	3.6 mg/L (≈ 7.97 µM)	0.26 mg/L (≈ 0.576 µM)	0.4 mg/L (≈ 0.886 µM)	0.17 mg/L (≈ 0.377 µM)	–	–	–	–
C/C=C\C1=C(C(=O)OC(C)OC(C)=O)N2C(=O)[C@@H](NC(=O)/C(=N\OC(C)=O)c3csc(N)n3)[C@H]2SC1 (stereo partly drawn) [Compound 55, 1-acetoxyethyl 7β-[(Z)-2-(2-aminothiazol-4-yl)-2-(acetoxyimino)acetamido]-3-[(Z)-prop-1-en-1-yl]-3-cephem-4-carboxylate]	–	–	–	–	–	–	–	–	AUC ([5]; mouse, in vivo, 20 mg/kg): 9.4 µg·h/mL; Cmax ([5]; mouse, in vivo, 20 mg/kg): 7.6 µg/mL; half-life ([5]; mouse, in vivo, 20 mg/kg): 0.8 h; AUC ([5]; mouse, in vivo, 100 mg/kg): 40 µg·h/mL; Cmax ([5]; mouse, in vivo, 100 mg/kg): 27 µg/mL; half-life ([5]; mouse, in vivo, 100 mg/kg): 0.8 h
C/C=C\C1=C(C(=O)OCc2oc(=O)oc2C)N2C(=O)[C@@H](NC(=O)/C(=N\O)c3csc(N)n3)[C@H]2SC1 [Compound 88, (5-methyl-2-oxo-1,3-dioxolen-4-yl)methyl 7β-[(Z)-2-(2-aminothiazol-4-yl)-2-(hydroxyimino)-acetamido]-3-[(Z)-prop-1-en-1-yl]-3-cephem-4-carboxylate]	–	–	–	–	–	–	–	–	ED50 (E. coli Juhl; Table 4): 2.7 mg/kg; ED50 (S. aureus Smith; Table 4): 1.1 mg/kg; AUC [7]: 44 µg·h/mL; Cmax [7]: 16 µg/mL
C/C=C\C1=C(C(=O)OC(C)OC(=O)OCC)N2C(=O)[C@@H](NC(=O)/C(=N\O)c3csc(N)n3)[C@H]2SC1 (stereo partly drawn) [Compound 89, 1-(ethoxycarbonyloxy)ethyl 7β-[(Z)-2-(2-aminothiazol-4-yl)-2-(hydroxyimino)-acetamido]-3-[(Z)-prop-1-en-1-yl]-3-cephem-4-carboxylate]	–	–	–	–	–	–	–	–	ED50 (E. coli Juhl; Table 4): 0.67 mg/kg; ED50 (S. aureus Smith; Table 4): 0.77 mg/kg; AUC [7]: 74 µg·h/mL; Cmax [7]: 32 µg/mL
C/C=C\C1=C(C(=O)OC(C)OC(=O)OC2CCCCC2)N2C(=O)C(NC(=O)/C(=N\O)c3csc(N)n3)[C@H]2SC1 (some centres unmarked) [Compound 90, 1-(cyclohexyloxycarbonyloxy)ethyl 7-[(Z)-2-(2-aminothiazol-4-yl)-2-(hydroxyimino)acetamido]-3-[(Z)-1-propenyl]-3-cephem-4-carboxylate]	–	–	–	–	–	1.5 mg/kg	78%	3.2 mg/kg	–
C/C=C\C1=C(C(=O)OC(C)OC(=O)C(C)(C)C)N2C(=O)C(NC(=O)/C(=N\O)c3csc(N)n3)[C@H]2SC1 (some centres unmarked) [Compound 91, 1-(pivaloyloxy)ethyl 7-[(Z)-2-(2-aminothiazol-4-yl)-2-(hydroxyimino)acetamido]-3-[(Z)-1-propenyl]-3-cephem-4-carboxylate]	–	–	–	–	–	3.5 mg/kg	60%	2 mg/kg	–
C/C=C\C1=C(C(=O)OC(C)OC(=O)CC2CCCCC2)N2C(=O)C(NC(=O)/C(=N\O)c3csc(N)n3)[C@H]2SC1 (some centres unmarked) [Compound 92, 1-(cyclohexylacetoxy)ethyl 7-[(Z)-2-(2-aminothiazol-4-yl)-2-(hydroxyimino)acetamido]-3-[(Z)-1-propenyl]-3-cephem-4-carboxylate]	–	–	–	–	–	1.4 mg/kg	87%	2.9 mg/kg	–
